Assay results: article PMC9655874, “Analysis of Volatile Secondary Metabolites in Ocimum basilicum Cell Suspensions: Inhibition, In Silico Molecular Docking, and an ADMET Analysis against Proteolytic Enzymes of Rhynchophorus ferrugineus” (Plants, 2022)
≈ marks a conversion by molar mass, not a printed value. Where “and” joins values, the source holds several entries; their conditions need not be identical. Identical values can stand only once.

Experiments:
[1] = system: metalloprotease of R. ferrugineus midgut; assay: Metalloprotease activity in midgut of treated larvae (in vivo); settings: larvae treated 24 h, midgut preparation
Experimental: (§4) The ten midgut larvae from the fourth stage were neatly eliminated, dissected, and repeatedly washed with 0.9% NaCl solution. A 500 µL protease test solution, including 50 mM HEPS, 0.1% Triton X-100, and 5 mM DTT (pH 8.0), was utilized to homogenize the midgut instar. The homogenates were then centrifuged employing a Sigma 3k30 (cooling centrifuge) at 5000 rpm for 30 min to evaluate the supernatant’s enzyme activity and protein content. Before introducing CEGR (125 µL, 2% (w/v)), each experiment’s supernatant (10 µL) was incubated in an assay buffer (60 µL) at 37 °C for 20 min (pH 8). During a 10 min incubation period without a substrate, 10 µL enzyme samples were tested (20 min. for EDTA, EGTA, 1.10, Phenanthroline). After 180 min at 37 °C, 300 µL of cold TCA, 10% (v/v), was used to terminate the reaction. For the next 20 min, the mixture was spun (5000 rpm, Sigma 3K30). The absorbance was measured at 450 nm after mixing the supernatant with hydroxide solution (10 µL, 10 N) using an ELISA reader. An enzyme-free assay combination was utilized as a blank, and particular activity was evaluated utilizing the OD493 mg^−1 protein min^−1 and an enzyme-free blank specimen.
(§5) An experiment that was set up free of potential inhibitors served as a control. An ELISA plate fast reader measured the enzymes’ absorption at various wavelengths. For each inhibitor, the control enzyme’s percentage activity was assessed for each enzyme. Four instars midgut larvae were treated with previous concentrations of extracts or compounds, assessed as previously mentioned, to measure the protease activity in vivo. Larvae were subjected to extract- and compound-treated leaf discs for 24 h.

[2] = system: R. ferrugineus 4th larvae; assay: Topical application (contact insecticide) to fourth instar larvae; format: in vivo, Rhynchophorus ferrugineus; settings: for LD50 (µg/Larvae) 95% CF: 4th larvae, topical, 95% confidence limits in brackets; for LD50: larvae
Experimental: (§1) Cells were suspended in the methanolic extract at serially increasing concentrations for 40 days. To dilute the compounds, TritonX-100 (0.1%) was added to acetone after the chemicals were dissolved. Adults or larvae of R. ferrugineus were purchased. They were then cultured using long lengths of sugar cane stem. The extracts’ anti-larvae action was assessed by applying topically to larvae and keeping them at 4–5 °C for 5 min. Utilizing a manually controlled micro-applicator, each larva had extract injected into its dorsum in three separate 10 µL doses using a 50-ll micro-syringe from Hertfordshire, UK’s Burkard Manufacturing Co., Ltd. (MS-N50; Shizuoka, Japan’s Ito Corp.). Five larvae in a box with three replications were fed on portions of long sugarcane stem measuring 10 cm. […] The sugarcane stem’s ten-centimeter-long portions cut into equal longitudinal halves were used to measure the antifeedant activity against adults. Long sections of sugarcane stem with a surface area of approximately 32.2 cm^2 were dried in air at room temperature, assuming a dipping time of 10 s and an initial serial concentration of (10 mL). Each treated object remained in a plastic container. Each box included an additional pair (male and female). Each therapy was administered ten times. In total, 24-, 48-, 72-, and 96-h feeding observations were assessed.
(§2) Statistics and probit analysis were performed using SPSS 25.0, as mentioned by Finney. To sum up, all numerical predictions of toxicity variables and findings were presented as the mean ± SE. We regressed mortality and translated the resulting dosage to an LC50 value (µg/mL). […] Enzyme activity data were analyzed using an ANOVA. Means were separated using the SNK (Student–Newman–Keuls) test, and deviations at the p ˂ 0.05 level were considered noteworthy.

[3] = target: metalloprotease of R. ferrugineus midgut; assay: Metalloproteinase specific activity, CEGR substrate (in vitro); settings: 4th instar midgut homogenate
Experimental: as §4, §5

[4] = system: total proteases of R. ferrugineus midgut; assay: Total protease activity in midgut of treated larvae (in vivo); settings: larvae treated 24 h, midgut preparation
Experimental: (§6) The homogenate of R. ferrugineus 4th midgut instar larvae (lab strain) was assayed for total proteolytic enzyme activity using azocasein, as Darrag et al. [26], with modifications. Ten 4th midgut larval homogenates were carefully removed, incised, and then rinsed in a solution containing 0.9% NaCl before even being homogenized in a buffer (500 µL) containing 5 mM dithiothreitol (DTT), 0.1% (v/v) Triton X-100, and 50 mM N-2-hydroxyethyl piperazine-N′-2-ethane sulphonic acid (HEPS), and 8.0 pH. It was spun in a centrifuge (Sigma 3k30), and the remaining homogenates were from a preliminary phase for 30 min at 5000 rpm. Using the supernatants, the protein concentration and proteolytic enzyme activity were determined. […] Before each reaction experiment, 40-day-old methanolic extract of cell suspension, pure chemicals, and 10 μL of enzyme specimens were incubated for 10 min. The addition of the substrate initiated the reaction, which was allowed for 20 min in the case of leupeptin before being terminated 180 min later by adding 300 µL of cold tri-chloroacetic acid (TCA) (10%, v/v). Twenty minutes were spent centrifuging the mixture at 5000 rpm (Sigma 3k30). Overall, 10 µL of NaOH (10 N) was added to the supernatant, and the absorbance was measured using an ELISA plate reader at 450 nm to quantify the enzymes’ specific activity as OD450/mg protein/h.
as §5

[5] = target: total proteases of R. ferrugineus midgut; assay: Total proteolytic enzyme activity of 4th instar midgut homogenate, azocasein (in vitro)
Experimental: as §6, §5

R. ferrugineus adults = assay: whole plant or invertebrate; format: in vivo; settings: Rhynchophorus ferrugineus, read-out: LC50 (µg/mL) 95% CF
Experimental: as §1, §2

[6] = target: trypsin proteinase of R. ferrugineus midgut; assay: Serine proteinase specific activity, trypsin (in vitro); settings: 4th instar midgut homogenate
Experimental: (§7) We used a serine protease assay buffer and a modified version of the fast microplate method to analyze the serine proteinase’s specific activity in mixtures (150 µL) [26]. […] The sample (10 µL) was diluted using an assay buffer to 50 µL to determine the presence of trypsin proteinase, chymotrypsin proteinase, and elastase. Assay buffer was used to dilute stock substrates of BAρNA (100 mg/mL DMSO), both SAAPFρNA and SAAPLρNA (100 mg/mL DMF), to 1.0 mg/mL. To halt the reaction after 15 min of incubation at 37 °C, 50 µL of acetic acid (30%, v/v) was added. The intensity of the activity was measured using a 405 nm ELISA plate reader. A denaturation enzyme was used in place of an active enzyme in the experiment mixture. For three substrates (SAAPLρNA, BAρNA, and SAAPFρNA), activity levels of certain proteinases were assessed as OD mg^−1 protein min^−1.
as §5

[7] = system: gut proteases of R. ferrugineus fourth larval instar; assay: Specific protease inhibitors against gut proteases of fourth larval instar (in vitro); format: biochemical, Rhynchophorus ferrugineus; settings: Figure S2, in vitro
Experimental: As a starting point (blank), an assessment combination not containing enzymes was utilized. TLCK (trypsin proteinase inhibitor), PMSF (general serine proteinase inhibitor), EDTA (EDTA-metalloproteinase inhibitor), iodoacetic acid (an iodoacetic acid-cysteine proteinase inhibitor), TPCK (chymotrypsin-proteinase inhibitor), and Leupeptin (as general proteinase inhibitor) were added to the reactions. Homogenates of larval fourth-gut tissue were prepared using the same methodology described for the enzyme activity test. The inhibitory test was conducted via a microplate assay, as reported previously. A series of inhibitor levels were prepared to determine the greatest inhibition activity. Concentrations of 0.01, 0.05, 0.1, and 1.0 mM leupeptin; 0.005, 0.01, 0.05, 0.1, and 1 mM TLCK and TPCK; 0.1, 1.0, 10, 50, and 100 mM PMSF; and 0.01, 0.05, 0.1, 1, and 2 mM iodoacetic acid, 100 mM; 1,10 phenanthroline, EDTA, and EGTA concentrations of 0.1, 1, 10, 50, and 100 mM.

[8] = target: elastase of R. ferrugineus midgut; assay: Serine proteinase specific activity, elastase (in vitro); format: biochemical, Rhynchophorus ferrugineus; settings: 4th instar midgut homogenate
[9] = system: trypsin proteinase of R. ferrugineus midgut; assay: Trypsin activity in midgut of treated larvae (in vivo); settings: larvae treated 24 h, midgut preparation
Experimental: as §7, §5

[10] = system: elastase of R. ferrugineus midgut; assay: Elastase activity in midgut of treated larvae (in vivo); set-up: species or system Rhynchophorus ferrugineus; settings: larvae treated 24 h, midgut preparation
[11] = system: cysteine protease of R. ferrugineus midgut; assay: Cysteine protease activity in midgut of treated larvae (in vivo); set-up: species or system Rhynchophorus ferrugineus; settings: larvae treated 24 h, midgut preparation
Experimental: (§3) Utilizing the substrate N-benzoyl-Phe-Val-Arg-p-nitroanilide hydrochloride and certain modifications, the cysteine proteinases of R. ferrugineus homogenate from the fourth midgut instar was tested for activity. Ten larvae of the fourth midgut were carefully taken out, dissected, and periodically washed with 0.9% (w/v) NaCl solution, assay buffer containing 50 mM HEPS, 5 mM DTT, and 0.1% Triton X-100 (v/v) (pH 8.0, 500 µL) was used to homogenize the samples. The homogenates were spun using a cooling Sigma 3k30 centrifuge for 30 min at 5000 rpm. […] Before introducing 100 µL of the substrate, 10 µL of the supernatant was incubated in assay buffer (60 µL, pH = 8) at 37 °C for 30 min. Enzyme samples in 10 µL were incubated for 10 min with iodoacetic acid before the addition of the substrate. […] The absorbance at 520 nm was measured after spinning the reaction for 6 min at 5000 rpm. The activity in the midgut was assayed at OD520.60 min^−1 mg^−1 of protein with an ELISA rapid reader.

[12] = target: cysteine protease of R. ferrugineus midgut; assay: Cysteine proteinase activity (in vitro); format: biochemical, Rhynchophorus ferrugineus; settings: 4th instar midgut homogenate
Experimental: as §3

Structure (SMILES) | IC50 metalloprotease (in vivo) [1] [µg/mL] | LD50 (µg/Larvae) 95% CF [2] | LD50 ([2]; topical application) [µg/larva] | IC50 metalloprotease (in vitro) [3] [µg/mL] | IC50 total proteases (in vivo) [4] [µg/mL] | IC50 total proteases (in vitro) [5] [µg/mL] | LC50 (R. ferrugineus adults) [µg/mL] | IC50 trypsin proteinase (in vitro) [6] [µg/mL] | Effect on extracted gut proteases of the fourth larval instar [7] | IC50 elastase (in vitro) [8] [µg/mL] | LD50 [2] [µg/larva] | IC50 trypsin proteinase (in vivo) [9] | IC50 elastase (in vivo) [10] [µg/mL] | IC50 cysteine protease (in vivo) [11] [µg/mL] | IC50 cysteine protease (in vitro) [12] [µg/mL]
C=C1/C=C/[C@H](C(C)C)CC/C(C)=C/CC1 [germacrene D] | 574.6 (≈ 2810 µM) | 21.3 (19.7–22.5) µg/Larvae | 21.3 | 112.3 (≈ 550 µM) | 861.2 (≈ 4210 µM) | 182.1 (≈ 891 µM) | 2040 (≈ 10000 µM) | 144.2 (≈ 706 µM) | – | – | – | – | – | – | –
O=C(O)CI [iodoacetic acid] | – | – | – | – | – | – | – | – | significantly inhibited | – | – | – | – | – | –
C=CC(C)(O)CCC=C(C)C (stereo not shown) [linalool] | – | 13.7 (12.6–14.8) µg/Larvae | 13.7 | 278.2 (≈ 1800 µM) | 192.7 (≈ 1250 µM) | 90.7 (≈ 588 µM) | 1400 (≈ 9060 µM) | 63.4 (≈ 411 µM) | – | 104.2 (≈ 676 µM) | 13.7 | 137.5 µg/mL (≈ 891 µM) | 217.2 (≈ 1410 µM) | 348.2 (≈ 2260 µM) | 189.2 (≈ 1230 µM)
CC(C)=CCC/C(C)=C\CO [nerol] | 189.1 (≈ 1230 µM) | 15.6 (14.3–16.2) µg/Larvae | 15.6 | 106.7 (≈ 692 µM) | 248.6 (≈ 1610 µM) | 188.3 (≈ 1220 µM) | 1950 (≈ 12600 µM) | 68.1 (≈ 441 µM) | – | – | 15.6 | 186.3 µg/mL (≈ 1210 µM) | – | – | –
C=C(C)C1CCC(C)C2=C(C1)C(C)CC2 (stereo not drawn) [α-guaiene] | 594.7 (≈ 2910 µM) | 19.2 (17.8–20.7) µg/Larvae | 19.2 | 124.9 (≈ 611 µM) | 694.7 (≈ 3400 µM) | 107.4 (≈ 526 µM) | 1490 (≈ 7300 µM) | 66.8 (≈ 327 µM) | – | – | – | 454.4 µg/mL (≈ 2220 µM) | – | 642.3 (≈ 3140 µM) | 238.5 (≈ 1170 µM)
C=C1CCC2CC1C2(C)CCC=C(C)C (stereo not drawn) [β-bergamotene] | 613.5 (≈ 3000 µM) | 17.2 (16.1–18.4) µg/Larvae | 17.2 | 134.8 (≈ 660 µM) | 598.3 (≈ 2930 µM) | 78.9 (≈ 386 µM) | 1290 (≈ 6330 µM) | 58.5 (≈ 286 µM) | – | – | – | 284.5 µg/mL (≈ 1390 µM) | – | 521.4 (≈ 2550 µM) | 119.6 (≈ 585 µM)
C=C1CC/C=C(\C)CC[C@@H]2[C@@H]1CC2(C)C [β-caryophyllene] | – | 20.1 (18.7–21.4) µg/Larvae | 20.1 | 314.5 (≈ 1540 µM) | 748.2 (≈ 3660 µM) | 176.3 (≈ 863 µM) | 1520 (≈ 7450 µM) | 70.4 (≈ 344 µM) | – | – | – | 489.3 µg/mL and 542.8 µg/mL | – | 586.3 (≈ 2870 µM) | 204.4 (≈ 1000 µM)
C=CC(=C)CCC=C(C)CCC=C(C)C [β-farnesene] | 545.7 (≈ 2670 µM) | 18.4 (17.1–19.7) µg/Larvae | 18.4 | 101.5 (≈ 497 µM) | 675.2 (≈ 3300 µM) | 88.6 (≈ 434 µM) | 1360 (≈ 6640 µM) | 60.2 (≈ 295 µM) | – | – | – | 425.8 µg/mL (≈ 2080 µM) | – | 536.8 (≈ 2630 µM) | 128.4 (≈ 628 µM)
CC1=CCC(C(C)C)=CC1 [γ-terpinene] | – | – | – | 526.8 (≈ 3870 µM) | 337.4 (≈ 2480 µM) | 268.1 (≈ 1970 µM) | – | 229.7 (≈ 1690 µM) | – | 154.3 (≈ 1130 µM) | – | 594.1 µg/mL (≈ 4360 µM) | 315.8 (≈ 2320 µM) | – | –
